In PubChem BioAssay (NCI) one finds GI50 and TGI data, which are given here for 18 compounds.

Structures are written as SMILES. Values joined by “and” are separate entries in the source; they are usually repeats but may differ in a detail not shown here. Equal values may be shown once.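 A five-concentration, 48-hour dose response in 96-well plates underlies each endpoint, interpolated linearly between surrounding concentrations. Here, GI50 denotes the concentration required for 50% inhibition of growth. TGI: concentration producing complete growth inhibition.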 A value given as a limit tells only on which side of the number the result lay.

Test in all cases: NCI-60 cell line screen, 48 h
Assay [1] concerns A549 NSCLC.
Assay [2] concerns CCRF-CEM leukemia.
The test system of assay [3] is DU-145 prostate.
The subject of assay [4] is EKVX NSCLC.
Assay [5] relates to HOP-62 NSCLC.
In assay [6] the test system is MOLT-4 leukemia.
For assay [7], the system named is SF-539 CNS.
For assay [8], the system named is SK-MEL-5 melanoma.
Assay [9] relates to SW-620 colon.
The test system of assay [10] is UO-31 renal.

For `Cc1ccc(C2=C(c3ccccc3)C(c3ccccc3)Oc3ccc(C)cc32)cc1` (centres undefined), the GI50 in assay [1] is 3.87 µM; in assay [2], 13.8 µM; in [3], 3.56 µM; in assay [4], 3.2 µM; in [5], 3.09 µM; in [6], 8.86 µM. The GI50 in [7] is 6.29 µM; in assay [8], 1.92 µM; in assay [9], 3.79 µM; in assay [10], 4.37 µM. Further, the TGI in assay [1] amounted to 10.7 µM; in assay [2], 39 µM; in assay [3], 12.5 µM; in assay [4], 12.8 µM; in [5] it was 7.71 µM; in assay [6], 31.5 µM. The TGI in assay [7] was 20 µM; in assay [8] it was 3.63 µM; in [9], 13.2 µM; in assay [10] it was 17 µM.
For the compound `CC(C)CC(Nc1c(O)ccc2ccccc12)C(=O)O` (centres undefined), the TGI was above 100 µM in assay [1]; above 100 µM in assay [2]; above 100 µM in assay [3]; 58.3 µM in [4]; above 100 µM in assay [5]; above 100 µM in [6]. For the same compound, the TGI in assay [7] was 47.6 µM; in assay [8], 38.7 µM; in assay [9] it was above 100 µM; in assay [10], above 100 µM.
Turning to `CCCCC(=O)N/N=C/c1c(O)ccc2ccccc12`, the GI50 in assay [1] is 4.47 µM; in assay [2], 0.267 µM; in assay [3], 2.7 µM; in assay [4], 1.75 µM; in assay [5] it was 7.95 µM; in assay [6] it was 0.349 µM. Besides, the GI50 in assay [7] was 2.8 µM; in [8], 1.84 µM; in assay [9], 3.54 µM; in assay [10], 1.87 µM. Also, the TGI was above 92.1 µM in [1]; 1.28 µM in [2]; above 100 µM in assay [3]; 7.92 µM in assay [4]; above 100 µM in assay [5]; above 44.9 µM in assay [7]. Besides, the TGI in assay [8] was 11.4 µM; in [9], above 100 µM; in assay [10] it was 28 µM.
Take `O=c1c(NO)c([N+](=O)[O-])cnn1-c1ccccc1`: the TGI in assay [1] amounted to 36.2 µM; in [2], 2.8 µM; in [3] it was 27.6 µM; in [4], 29.8 µM; in [5] it was 23.1 µM; in [6], 10.5 µM. Besides, the TGI in [7] was determined as 28.9 µM; in assay [8], 12.4 µM; in assay [9], 3.73 µM; in assay [10], 12.9 µM.
As to `O=S1(=O)CS(=O)(=O)OCCO1`, the GI50 in assay [1] is above 82.6 µM; in assay [5] it was above 85.2 µM; in assay [6], 18.4 µM; in assay [7], 30.4 µM; in [8], above 56.6 µM. In addition, the TGI in assay [1] came out at 186 µM; in assay [2], 252 µM; in assay [3], 178 µM; in assay [4], 273 µM; in assay [5], 50.9 µM; in assay [6], 100 µM. Also, the TGI was > 78.2 µM and 63.5 µM in assay [7]; 87.7 µM in [8]; 321 µM in [9]; 134 µM in assay [10].
With `O=C1C(=O)c2ccccc2C(O)=C1CCCc1ccc(C2CCCCCC2)cc1`, the GI50 is 0.664 µM in [1]; 1.16 µM in [2]; 0.72 µM in [3]; 0.939 µM in assay [4]; 1.27 µM in assay [5]; 0.618 µM in assay [6]. For the same compound, the GI50 in assay [7] was 2.56 µM; in assay [8], 0.445 µM; in assay [9], 0.576 µM; in [10], 0.612 µM. For the same compound, the TGI in assay [1] was 17.4 µM; in assay [2] it was above 100 µM; in [3], 34.3 µM; in [4], 50.6 µM; in assay [5], 27.3 µM; in assay [6] it was above 32.1 µM. Moreover, the TGI in assay [7] is above 74.7 µM; in [8], 11.5 µM; in [9], 33.2 µM; in assay [10], 8.94 µM.
`COc1cc(N2CCN(C(C)C)CC2)ccc1Nc1nc(Nc2cccc(F)c2C(=O)O)c2cc[nH]c2n1`: the GI50 in assay [1], in assay [2], in assay [3], in assay [4], in assay [5] and in [6] was above 25 µM each time. Moreover, the GI50 in assay [7], in assay [8], in assay [9] and in assay [10] was above 25 µM each time. The TGI in [1], in assay [2], in assay [3], in assay [4], in assay [5] and in assay [6] was above 25 µM in each case. The TGI in assay [7], in assay [8], in assay [9] and in assay [10] was above 25 µM in each case.
For the compound `Cc1[nH]c(-c2nc3ccccc3[nH]2)c(C)c1C(=O)NC(C)C1CCCCC1` (centres undefined), the GI50 in assay [1] is 12.2 µM; in assay [2], 5.49 µM; in assay [3], 14.6 µM; in assay [4], 11.4 µM; in assay [5], 12.7 µM; in [6], 4.95 µM. The GI50 was 6.7 µM in [7], 10.3 µM in assay [8], 4.95 µM in assay [9] and 11.9 µM in assay [10]. The TGI in [1] worked out at 34 µM; in assay [2] it was 21.4 µM; in [3] it was 28.2 µM; in assay [4], 23.7 µM; in assay [5] it was 38.3 µM; in [6], 28.1 µM. The TGI in assay [7] is 19.6 µM; in assay [8], 22.3 µM; in assay [9] it was 18.3 µM; in assay [10] it was 25.6 µM.
In the case of `C/C(=N\N=C(\[Se])N(C)C)c1ccccn1`, the TGI in [1] came out at 13.5 µM; in assay [2] it was 2.1 µM; in assay [3] it was 18 µM; in assay [4], 11.6 µM; in assay [5] it was 1.33 µM; in assay [6], 7.8 µM. Also, the TGI in [7] is 9.03 µM; in [8] it was 1.75 µM; in assay [9], 15.2 µM; in [10], 13.9 µM.
In the case of `CCCCCCCCCCCCCCCC(=O)OCC1OC(OC)C2NP(=O)(N(CCCl)CCCl)OC1C2O` (centres undefined), the TGI was determined as 39.9 µM in assay [1]; 9.26 µM in [2]; 54.8 µM in assay [3]; 47.4 µM in [4]; 10.8 µM in [5]; 0.968 µM in [6]. Moreover, the TGI was 7.29 µM in assay [7], 38 µM in [8], 17.4 µM in assay [9] and 35.1 µM in [10].
With `CC(/C=C/c1ccccc1)=N\NC(N)=S`, the TGI in assay [1], in [2], in assay [3], in [4], in [5] and in assay [6] was above 100 µM each time. Moreover, the TGI in assay [7] is 94.5 µM; in assay [8], above 100 µM; in assay [9], above 100 µM; in assay [10], above 100 µM.
For `Cc1cc2nc3cc(C)c(N)cc3[n+](-c3ccccc3)c2cc1N`, the GI50 in [1] is 14.6 µM; in assay [2] it was 11.2 µM; in assay [3], 7.89 µM; in assay [4], 2.48 µM; in [5] it was 3.7 µM; in assay [6], 6.5 µM. Besides, the GI50 is 4.39 µM in assay [7], 0.773 µM in [8], 5.62 µM in assay [9] and above 100 µM in assay [10]. Also, the TGI in assay [1], in assay [2], in [3], in assay [4], in assay [5] and in assay [6] was above 100 µM in each case. Further, the TGI in [7] is above 100 µM; in assay [8] it was 5.4 µM; in assay [9], above 45.2 µM; in assay [10] it was above 100 µM.
`CCOC(=O)c1c(C)nc2c(c1N)CC(=O)N2CCc1ccccc1`: the GI50 was 4.19 µM in assay [1]; 0.389 µM in assay [2]; 0.881 µM in assay [3]; 6.06 µM in assay [4]; 0.472 µM in assay [5]; 0.822 µM in [6]. Further, the GI50 in assay [7] was 0.324 µM; in assay [8] it was 0.939 µM; in [9], 0.47 µM; in assay [10] it was 1.03 µM. Also, the TGI in assay [1] amounted to 36.9 µM; in assay [2] it was 14.4 µM; in assay [3], 16 µM; in assay [4], 68.8 µM; in assay [5] it was 14.7 µM; in [6], 21.4 µM. Besides, the TGI was 11.9 µM in [7], 13.6 µM in [8], 11.1 µM in assay [9] and 21.9 µM in assay [10].
Turning to `CN1CCN(Cc2ccc(NC(=O)c3cncc(C#Cc4cncc5nccnc45)c3)cc2C(F)(F)F)CC1`, the GI50 in [1] is 4.3 µM; in [2], 3.98 µM; in [3], 3.22 µM; in [4] it was above 50 µM; in [5] it was 2.68 µM; in [6], 1.89 µM. The GI50 is 0.956 µM in assay [7], 2.61 µM in assay [8], 0.878 µM in assay [9] and 2.16 µM in [10]. For the same compound, the TGI in assay [1] is 11.4 µM; in [2], 35 µM; in [3], 9.6 µM; in assay [4], above 50 µM; in assay [5], 9.8 µM; in assay [6], 13.2 µM. Moreover, the TGI in assay [7] is 6 µM; in [8] it was 8.63 µM; in [9], 7.7 µM; in assay [10] it was above 50 µM.
As for `Cc1cc(C(=O)O)c(C)n1-c1cccc(C(=O)O)c1`, the GI50 in assay [1], in assay [2], in assay [3], in [4], in [5] and in assay [6] was above 100 µM throughout. In addition, the GI50 in assay [7], in assay [8], in [9] and in assay [10] was above 100 µM in each case. Moreover, the TGI in [1], in [2], in assay [3], in assay [4], in [5] and in assay [6] was above 100 µM throughout. For the same compound, the TGI in assay [7], in assay [8], in assay [9] and in assay [10] was above 100 µM in each case.
Take `C[n+]1c(-c2ccc(/C=N/NC(=O)c3ccc(C(=O)N/N=C/c4ccc(-c5cn6ccccc6[n+]5C)cc4)cc3)cc2)cn2ccccc21`: the GI50 in assay [1] was 176 µM; in assay [2], 209 µM; in assay [3], 206 µM; in assay [4] it was above 1000 µM; in assay [5] it was 277 µM; in assay [6], 135 µM. For the same compound, the GI50 in [7] was 206 µM; in assay [8], 155 µM; in assay [9], above 1000 µM; in [10], 227 µM. For the same compound, the TGI in assay [1] was 314 µM; in assay [2], > 50 µM and 353 µM; in assay [3], 698 µM; in assay [4], above 1000 µM; in assay [5], 425 µM; in assay [6], 292 µM. The TGI in [7] is 349 µM; in assay [8], > 94.9 µM and 634 µM; in [9], above 1000 µM; in assay [10] it was > 73.3 µM and 955 µM.
As to `N=C(N)c1ccc(NCCOCCNc2ccc(C(=N)N)cc2)cc1`, the GI50 in assay [1] is 14.4 µM; in assay [2], above 100 µM; in [3] it was 27.4 µM; in [4], 21.7 µM; in assay [5] it was 33.2 µM; in assay [6], above 100 µM. Further, the GI50 is 36.8 µM in assay [7], 25.5 µM in assay [8], 63.6 µM in assay [9] and 47.2 µM in assay [10]. The TGI in [1], in [2], in assay [3], in [4], in assay [5] and in [6] was above 100 µM throughout. For the same compound, the TGI in assay [7] was above 100 µM; in [8] it was 89.4 µM; in assay [9], above 100 µM; in assay [10], above 100 µM.
For `COC(=O)C(CBr)CBr`, the TGI in assay [1] turned out to be 36.3 µM; in [2], 1.83 µM; in assay [3], 31.9 µM; in [4] it was 21.5 µM; in [5], 40.7 µM; in [6] it was 16.4 µM. Further, the TGI in assay [7] turned out to be 13.2 µM; in assay [8] it was 25.1 µM; in assay [9] it was 3.11 µM; in assay [10], 10.2 µM.
